Holding throughout (type): in vivo
Experiment [1] has as its system Alopecurus myosuroides (ALOMY). The experiment can be described thus: Post-emergence biological efficacy, glasshouse pot test. The note with it: 312 h. The method in brief: (§1)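 Plants were sown in standard soil and grown 8 days in a glasshouse (24/16° C. day/night, 14 hours light, 65% humidity), then sprayed post-emergence at 1000 or 250 g/ha from acetone/water (50:50) with 0.5% Tween 20. Damage was scored visually after 13 days (0 = none, 100 = total).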

The subject of experiment [2] is Amaranthus retoflexus (AMARE). The description is as above. The note with it: Amaranthus retroflexus, 312 h. A digest of the protocol: as §1
Experiment [3] has as its system Setaria faberi (SETFA). The description is as above. The note with it: 312 h. The method in brief: as §1
Experiment [4] has as its system Ipomea hederaceae (IPOHE). Described as above. The note with it: Ipomoea hederacea, 312 h. A digest of the protocol: as §1
The subject of experiment [5] is Echinochloa crus-galli (ECHCG). Described as above. The note with it: 312 h. The method in brief: as §1
Experiment [6] relates to Solanum nigrum (SOLNI). The description is as above. To be noted: 312 h. The method in brief: as §1
Experiment [7] has as its system Alopecurus myosuroides (ALOMY). The experiment in a line: Pre-emergence biological efficacy, glasshouse pot test. To be noted: 312 h. A digest of the protocol: (§2)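 Seeds sown in standard soil in pots, held one day in glasshouse (24/16 °C day/night, 14 h light, 65% humidity), then sprayed with aqueous solution from acetone/water (50:50) formulation with 0.5% Tween 20 at 1000 or 250 g/ha. Damage scored after 13 days (0 = none, 100 = total).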

Experiment [8] concerns Amaranthus retoflexus (AMARE). The experiment is described as above. To be noted: Amaranthus retroflexus, 312 h. A digest of the protocol: as §2
The subject of experiment [9] is Setaria faberi (SETFA). Described as above. The note with it: 312 h. The method in brief:
as §2

For experiment [10], the system named is Ipomea hederaceae (IPOHE). The experiment is described as above. To be noted: Ipomoea hederacea, 312 h. A digest of the protocol: as §2
The subject of experiment [11] is Echinochloa crus-galli (ECHCG). The experiment is described as above. The note with it: 312 h. A digest of the protocol: as §2
In experiment [12] the test system is Solanum nigrum (SOLNI). Described as above. The note with it: 312 h. The method in brief: as §2
[13] abbreviates: post-emergence, 1,000 g/ha, evaluated after 13 days (100=total damage; 0=no damage), read-out: Percentage damage caused to weed species, ALOMY.
Setting [14] is: post-emergence, 1,000 g/ha, evaluated after 13 days (100=total damage; 0=no damage), read-out: Percentage damage caused to weed species, AMARE.
The mark [15] stands for this setting: post-emergence, 1,000 g/ha, evaluated after 13 days (100=total damage; 0=no damage), read-out: Percentage damage caused to weed species, SETFA.
The mark [16] stands for this setting: post-emergence, 1,000 g/ha, evaluated after 13 days (100=total damage; 0=no damage), read-out: Percentage damage caused to weed species, IPOHE.
Where [17] appears, read: post-emergence, 1,000 g/ha, evaluated after 13 days (100=total damage; 0=no damage), read-out: Percentage damage caused to weed species, ECHCG.
Setting [18] is: post-emergence, 1,000 g/ha, evaluated after 13 days (100=total damage; 0=no damage), read-out: Percentage damage caused to weed species, SOLNI.
The mark [19] stands for this setting: pre-emergence, 1,000 g/ha, evaluated after 13 days (100=total damage; 0=no damage), read-out: Percentage damage ALOMY.
Where [20] appears, read: pre-emergence, 1,000 g/ha, evaluated after 13 days (100=total damage; 0=no damage), read-out: Percentage damage AMARE.
Setting [21] is: pre-emergence, 1,000 g/ha, evaluated after 13 days (100=total damage; 0=no damage), read-out: Percentage damage SETFA.
[22] abbreviates: pre-emergence, 1,000 g/ha, evaluated after 13 days (100=total damage; 0=no damage), read-out: Percentage damage IPOHE.
Setting [23] is: pre-emergence, 1,000 g/ha, evaluated after 13 days (100=total damage; 0=no damage), read-out: Percentage damage ECHCG.
Where [24] appears, read: pre-emergence, 1,000 g/ha, evaluated after 13 days (100=total damage; 0=no damage), read-out: Percentage damage SOLNI.
Setting [25] is: Rate 1,000 g/ha, post-emergence spray, evaluated after 13 days (100=total damage to plant; 0=no damage to plant), read-out: Percentage damage caused to weed species, post-emergence, ALOMY.
Where [26] appears, read: Rate 1,000 g/ha, post-emergence spray, evaluated after 13 days (100=total damage to plant; 0=no damage to plant), read-out: Percentage damage caused to weed species, post-emergence, AMARE.
[27] abbreviates: Rate 1,000 g/ha, post-emergence spray, evaluated after 13 days (100=total damage to plant; 0=no damage to plant), read-out: Percentage damage caused to weed species, post-emergence, SETFA.
Where [28] appears, read: Rate 1,000 g/ha, post-emergence spray, evaluated after 13 days (100=total damage to plant; 0=no damage to plant), read-out: Percentage damage caused to weed species, post-emergence, IPOHE.
Where [29] appears, read: Rate 1,000 g/ha, post-emergence spray, evaluated after 13 days (100=total damage to plant; 0=no damage to plant), read-out: Percentage damage caused to weed species, post-emergence, ECHCG.
Setting [30] is: Rate 1,000 g/ha, post-emergence spray, evaluated after 13 days (100=total damage to plant; 0=no damage to plant), read-out: Percentage damage caused to weed species, post-emergence, SOLNI.
Setting [31] is: pre-emergence, rate 1,000 g/ha, evaluated after 13 days (100=total damage to plant; 0=no damage), read-out: Percentage damage caused to weed species, ALOMY.
Where [32] appears, read: pre-emergence, rate 1,000 g/ha, evaluated after 13 days (100=total damage to plant; 0=no damage), read-out: Percentage damage caused to weed species, AMARE.
Setting [33] is: pre-emergence, rate 1,000 g/ha, evaluated after 13 days (100=total damage to plant; 0=no damage), read-out: Percentage damage caused to weed species, SETFA.
The mark [34] stands for this setting: pre-emergence, rate 1,000 g/ha, evaluated after 13 days (100=total damage to plant; 0=no damage), read-out: Percentage damage caused to weed species, IPOHE.
[35] abbreviates: pre-emergence, rate 1,000 g/ha, evaluated after 13 days (100=total damage to plant; 0=no damage), read-out: Percentage damage caused to weed species, ECHCG.
The mark [36] stands for this setting: pre-emergence, rate 1,000 g/ha, evaluated after 13 days (100=total damage to plant; 0=no damage), read-out: Percentage damage caused to weed species, SOLNI.

In the case of `COC(=O)c1nc(C2CC2)nc(NCC2(O)CCCCC2)c1Cl` [Compound 4-50, 5-Chloro-2-cyclopropyl-4-[(1-hydroxycyclohex-1-yl)methylamino]-6-methoxycarbonyl-pyrimidine], the pest or weed control at 1000 g/ha in experiment [1] (setting [13]) worked out at 10%; in experiment [2] (setting [14]), 100%; in experiment [3] (setting [15]), 50%; in experiment [4] (setting [16]) it was 70%; in experiment [5] (setting [17]) it was 10%; in experiment [6] (setting [18]), 80%. In addition, the pest or weed control at 1000 g/ha in [7] (setting [19]) amounted to 10%; in experiment [8] (setting [20]) it was 100%; in experiment [9] (setting [21]) it was 10%; in experiment [10] (setting [22]), 100%; in experiment [11] (setting [23]), 10%; in experiment [12] (setting [24]), 100%.
Regarding `COC(=O)c1nc(C2CC2)nc(NCCCc2cccnc2)c1Cl` [Compound 4-251, 5-Chloro-2-cyclopropyl-6-methoxycarbonyl-4-[3-(pyrid-3-yl)propylamino]-pyrimidine], the pest or weed control at 1000 g/ha in experiment [1] (setting [13]) was found to be 10%; in experiment [2] (setting [14]), 100%; in experiment [3] (setting [15]) it was 50%; in experiment [4] (setting [16]), 50%; in experiment [5] (setting [17]), 40%; in experiment [6] (setting [18]), 80%. Besides, the pest or weed control at 1000 g/ha in experiment [7] (setting [19]) was found to be 0%; in experiment [8] (setting [20]), 40%; in experiment [9] (setting [21]) it was 0%; in [10] (setting [22]), 20%; in [11] (setting [23]) it was 0%; in experiment [12] (setting [24]) it was 20%.
On to `COc1ccc(CNc2nc(C3CC3)nc(C(=O)O)c2Cl)c(OC)c1` [Compound 1-110, 5-Chloro-2-cyclopropyl-4-(2,4-dimethoxyphenyl-methylamino)-pyrimidine-6-carboxylic acid], for which the pest or weed control at 1000 g/ha in experiment [1] (setting [13]) came out at 30%; in experiment [2] (setting [14]) it was 100%; in experiment [3] (setting [15]), 80%; in experiment [4] (setting [16]), 80%; in [5] (setting [17]), 50%; in [6] (setting [18]) it was 80%. Besides, the pest or weed control at 1000 g/ha is 40% in [7] (setting [19]); 100% in experiment [8] (setting [20]); 30% in experiment [9] (setting [21]); 90% in [10] (setting [22]); 20% in experiment [11] (setting [23]); 60% in [12] (setting [24]).
`CCOC(=O)c1nc(C2CC2)nc(NCc2ccco2)c1Cl` [Compound 7-125, 5-Chloro-2-cyclopropyl-6-ethoxycarbonyl-4-(2-furanylmethyl-amino)pyrimidine]: the pest or weed control at 1000 g/ha was 90% in [1] (setting [25]); 100% in experiment [2] (setting [26]); 90% in experiment [3] (setting [27]); 100% in [4] (setting [28]); 80% in [5] (setting [29]); 90% in experiment [6] (setting [30]). Further, the pest or weed control at 1000 g/ha is 60% in experiment [7] (setting [31]); 100% in [8] (setting [32]); 80% in experiment [9] (setting [33]); 100% in [10] (setting [34]); 90% in [11] (setting [35]); 100% in [12] (setting [36]).
As for `COC(=O)c1nc(-c2ccc(F)c(C(F)(F)F)c2)nc(NCc2ccco2)c1Cl` [Compound 244-48, 5-Chloro-2-(4-fluoro-3-trifluoromethyl-phenyl)-4-(furan-2-ylmethylamino)-6-methoxycarbonyl-pyrimidine], the pest or weed control at 1000 g/ha in experiment [1] (setting [25]) worked out at 30%; in experiment [2] (setting [26]), 50%; in [3] (setting [27]) it was 80%; in experiment [4] (setting [28]) it was 30%; in experiment [5] (setting [29]), 60%; in [6] (setting [30]) it was 80%. Besides, the pest or weed control at 1000 g/ha in experiment [7] (setting [31]) was 30%; in experiment [8] (setting [32]), 10%; in experiment [9] (setting [33]) it was 60%; in experiment [10] (setting [34]), 0%; in experiment [11] (setting [35]), 20%; in [12] (setting [36]), 30%.
As to `O=C(NCc1ccccc1)c1nc(C2CC2)nc(NCc2ccccc2)c1Cl` [Compound 265-1, 5-chloro-2-cyclopropyl-4-phenylmethylamino-6-phenylmethylaminocarbonyl pyrimidine], the pest or weed control at 1000 g/ha in [1] (setting [25]) was found to be 10%; in experiment [2] (setting [26]), 80%; in [3] (setting [27]) it was 0%; in [4] (setting [28]), 70%; in [5] (setting [29]), 0%; in [6] (setting [30]), 50%. Also, the pest or weed control at 1000 g/ha was found to be 0% in [7] (setting [31]); 30% in [8] (setting [32]); 0% in [9] (setting [33]); 0% in [10] (setting [34]); 0% in experiment [11] (setting [35]); 10% in experiment [12] (setting [36]).
As for `O=C(O)c1nc(-c2ccc(Cl)cc2)nc(NCc2ccco2)c1Cl` [Compound 37-125, 5-Chloro-2-(4-chlorophenyl)-4-(furan-2-ylmethylamino)-pyrimidine-6-carboxylic acid], the pest or weed control at 1000 g/ha in experiment [1] (setting [25]) is 70%; in [2] (setting [26]) it was 100%; in [3] (setting [27]), 100%; in [4] (setting [28]), 100%; in [5] (setting [29]), 90%; in experiment [6] (setting [30]) it was 100%. Besides, the pest or weed control at 1000 g/ha was 50% in experiment [7] (setting [31]); 100% in [8] (setting [32]); 90% in [9] (setting [33]); 40% in experiment [10] (setting [34]); 90% in experiment [11] (setting [35]); 100% in [12] (setting [36]).

Values taken from patent US20110086759A1, “CHEMICAL COMPOUNDS” (SYNGENTA CROP PROTECTION, INC., priority 2007, published 2011).
